# Assay results as given in ChEMBL document CHEMBL1201862, “PubChem BioAssay data set” (2004).
#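 Following 48 hours of exposure in 96-well plates, responses at five concentrations were used to interpolate endpoints linearly. GI50: concentration for 50% inhibition of growth.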 Active and inactive are the calls of the source. No stated cut-off is given here; in the data, active = GI50 up to about 1.1 µM and inactive = higher.
# What was measured:
# Experiment in all cases: inhibition of tumour cell growth, NCI panel, 48 h
# NCI-H226 = system: NCI-H226
# T47D = system: T47D
# UACC-257 = system: UACC-257
# SR = system: SR
# MDA-MB-435 = system: MDA-MB-435
# Hs-578T = system: Hs-578T
# SK-MEL-5 = system: SK-MEL-5
# SK-MEL-2 = system: SK-MEL-2
# RPMI-8226 = system: RPMI-8226
# A498 = system: A498
# NCI-H460 = system: NCI-H460
# NCI-H23 = system: NCI-H23
# COLO 205 = system: COLO 205
# RXF 393 = system: RXF 393
# NCI/ADR-RES = system: NCI/ADR-RES
# K562 = system: K562
# A549 = system: A549
# CAKI-1 = system: CAKI-1
# PC-3 = system: PC-3
# OVCAR-8 = system: OVCAR-8
SMILES,GI50 (NCI-H226),GI50 (T47D),GI50 (UACC-257),GI50 (SR),GI50 (MDA-MB-435),GI50 (Hs-578T),GI50 (SK-MEL-5),GI50 (SK-MEL-2),GI50 (RPMI-8226),GI50 (A498),GI50 (NCI-H460),GI50 (NCI-H23),GI50 (COLO 205),GI50 (RXF 393),GI50 (NCI/ADR-RES),GI50 (K562),GI50 (A549),GI50 (CAKI-1),GI50 (PC-3),GI50 (OVCAR-8)
CCCCNc1nc(SC)nc2[nH]cnc12,> 100 µM (inactive),> 100 µM (inactive),> 100 µM (inactive),> 100 µM (inactive),> 100 µM (inactive),2.36 µM (inactive),> 100 µM (inactive),> 100 µM (inactive),> 100 µM (inactive),5.96 µM (inactive),> 100 µM (inactive),> 100 µM (inactive),> 100 µM (inactive),> 88.5 µM (inactive),> 100 µM (inactive),> 100 µM (inactive),> 100 µM (inactive),> 100 µM (inactive),> 100 µM (inactive),> 64.4 µM (inactive)
CCOC(=O)C(Cc1ccc(N(CCCl)CCCl)cc1)NC(=O)CCCN1C(=O)CN=C(c2ccccc2)c2cc(Cl)ccc21 (stereo not given),35.2 µM (inactive),3.55 µM (inactive),3.6 µM (inactive),2.31 µM (inactive),16.1 µM (inactive),6.67 µM (inactive),12.4 µM (inactive),14.7 µM (inactive),3.48 µM (inactive),39.9 µM (inactive),5.35 µM (inactive),9.66 µM (inactive),16.2 µM (inactive),3.25 µM (inactive),22 µM (inactive),6.32 µM (inactive),39.1 µM (inactive),15.2 µM (inactive),11.7 µM (inactive),18.7 µM (inactive)
C/C=C(\N=C=S)C(=O)OC1C(COC(C)=O)OC([C@]2(O)CC(=O)C(N)=C(C(=O)O)C2=O)C(O)C1OC1CC(OC)C(O)([C@@H](C)OC(=O)[C@@H](C)CC)C(C)O1 (stereo not given in full),19.4 µM (inactive),11.2 µM (inactive),15.4 µM (inactive),4.39 µM (inactive),17.3 µM (inactive),7.82 µM (inactive),14.8 µM (inactive),9.33 µM (inactive),2.11 µM (inactive),35 µM (inactive),20.7 µM (inactive),9.84 µM (inactive),4.71 µM (inactive),5.35 µM (inactive),94.4 µM (inactive),2.11 µM (inactive),33.7 µM (inactive),19.6 µM (inactive),15.7 µM (inactive),5.65 µM (inactive)
CCN(CC)CCOC(=O)CCN1CC2CCC(CC2)C1,> 100 µM (inactive),> 100 µM (inactive),> 100 µM (inactive),> 100 µM (inactive),> 100 µM (inactive),> 100 µM (inactive),> 100 µM (inactive),> 100 µM (inactive),> 100 µM (inactive),> 100 µM (inactive),> 100 µM (inactive),> 100 µM (inactive),> 100 µM (inactive),> 100 µM (inactive),> 100 µM (inactive),> 100 µM (inactive),> 100 µM (inactive),> 100 µM (inactive),> 100 µM (inactive),> 100 µM (inactive)
COc1ccc2cc(CN3CCC(C4CCNCC4)CC3)ccc2c1,7.93 µM (inactive),2.33 µM (inactive),1.87 µM (inactive),2.07 µM (inactive),1.91 µM (inactive),2.93 µM (inactive),1.79 µM (inactive),1.91 µM (inactive),1.53 µM (inactive),5.33 µM (inactive),1.93 µM (inactive),12 µM (inactive),1.69 µM (inactive),2.28 µM (inactive),2.88 µM (inactive),0.959 µM (active),12.2 µM (inactive),2.48 µM (inactive),7.8 µM (inactive),3.4 µM (inactive)
COC(=O)C12CCC(C)(C)CC1C1=CCC3C4(C)CC(O)C(O)C(C)(C(=O)OC)C4CCC3(C)C1(CO)CC2 (stereo not given),16.9 µM (inactive),10.7 µM (inactive),17.2 µM (inactive),3.42 µM (inactive),15.1 µM (inactive),12.6 µM (inactive),16 µM (inactive),14 µM (inactive),12.1 µM (inactive),18.7 µM (inactive),15.7 µM (inactive),15.5 µM (inactive),15.3 µM (inactive),6.68 µM (inactive),12.9 µM (inactive),15.6 µM (inactive),13.4 µM (inactive),14 µM (inactive),10.3 µM (inactive),13.6 µM (inactive)
COc1ccc(OC)c(-c2nc3n(c2/C=C2/C(=O)Nc4ccccc42)CCS3)c1,> 100 µM (inactive),35.1 µM (inactive),63.1 µM (inactive),32.8 µM (inactive),17.5 µM (inactive),44.8 µM (inactive),53.5 µM (inactive),26 µM (inactive),35 µM (inactive),48.5 µM (inactive),35 µM (inactive),> 100 µM (inactive),39.5 µM (inactive),21.4 µM (inactive),34.8 µM (inactive),37.4 µM (inactive),63.7 µM (inactive),51.4 µM (inactive),86.5 µM (inactive),68.1 µM (inactive)
CCOc1c(OC)cc(C2c3cc4c(c(OCC)c3CC3COC(=O)C32)OCO4)cc1OC (stereo not given),6.84 µM (inactive),23 µM (inactive),0.912 µM (active),0.247 µM (active),0.272 µM (active),1.99 µM (inactive),1.63 µM (inactive),13.2 µM (inactive),3.75 µM (inactive),10.9 µM (inactive),3.21 µM (inactive),1.82 µM (inactive),2.22 µM (inactive),4.6 µM (inactive),2.03 µM (inactive),1.83 µM (inactive),2.86 µM (inactive),5.16 µM (inactive),2.37 µM (inactive),2.11 µM (inactive)
CCc1ccc(/C=C/C(=O)C2CN(CC)CCC2(O)/C=C/c2ccc(CC)cc2)cc1 (stereo not given),4.41 µM (inactive),4.15 µM (inactive),6.92 µM (inactive),1.71 µM (inactive),1.88 µM (inactive),2.83 µM (inactive),4.36 µM (inactive),7.18 µM (inactive),1.36 µM (inactive),10.7 µM (inactive),2.22 µM (inactive),4.61 µM (inactive),2.45 µM (inactive),3.18 µM (inactive),3.47 µM (inactive),2.52 µM (inactive),7.08 µM (inactive),6.59 µM (inactive),3.55 µM (inactive),3.3 µM (inactive)
N#Cc1cccc(N2C(=O)C3C4C=CC(C3C2=O)C2C(=O)N(c3cccc(C#N)c3)C(=O)C42)c1 (stereo not given),62.1 µM (inactive),> 31.6 µM (inactive),> 63.1 µM (inactive),37.6 µM (inactive),> 100 µM (inactive),40 µM (inactive),> 63.1 µM (inactive),22.8 µM (inactive),> 56.2 µM (inactive),22.4 µM (inactive),> 63.1 µM (inactive),27.6 µM (inactive),> 63.1 µM (inactive),10.2 µM (inactive),> 100 µM (inactive),46.9 µM (inactive),51.2 µM (inactive),55.5 µM (inactive),> 100 µM (inactive),37.8 µM (inactive)
Cn1c2ccc3cc2c(=S)c2cc(ccc21)OCCOCCOCCOCCOCCO3,> 10 µM (inactive),> 10 µM (inactive),> 10 µM (inactive),> 10 µM (inactive),> 10 µM (inactive),> 10 µM (inactive),> 10 µM (inactive),> 10 µM (inactive),> 10 µM (inactive),> 10 µM (inactive),> 10 µM (inactive),> 10 µM (inactive),> 10 µM (inactive),> 10 µM (inactive),> 10 µM (inactive),> 10 µM (inactive),> 10 µM (inactive),> 10 µM (inactive),> 10 µM (inactive),> 10 µM (inactive)
COc1ccc(-n2c(CCC(=O)O)nc3c2C(=O)c2ccccc2C3=O)cc1,> 100 µM (inactive),33 µM (inactive),> 100 µM (inactive),> 100 µM (inactive),96.4 µM (inactive),> 100 µM (inactive),> 100 µM (inactive),88.1 µM (inactive),> 100 µM (inactive),> 100 µM (inactive),> 100 µM (inactive),> 100 µM (inactive),> 100 µM (inactive),> 100 µM (inactive),> 100 µM (inactive),71.3 µM (inactive),> 100 µM (inactive),> 100 µM (inactive),> 100 µM (inactive),> 100 µM (inactive)
Cn1c(=S)[nH]c(N)c(Cc2ccccc2)c1=O,44.3 µM (inactive),40.3 µM (inactive),> 100 µM (inactive),67.5 µM (inactive),> 100 µM (inactive),39 µM (inactive),> 100 µM (inactive),> 100 µM (inactive),> 100 µM (inactive),32.1 µM (inactive),> 100 µM (inactive),> 100 µM (inactive),> 100 µM (inactive),> 100 µM (inactive),64.4 µM (inactive),78.5 µM (inactive),> 100 µM (inactive),> 100 µM (inactive),> 100 µM (inactive),93.8 µM (inactive)
Oc1cc(-c2ccc(F)cc2)nc2ncc(Cl)cc12,3.03 µM (inactive),48.4 µM (inactive),> 68.9 µM (inactive),3.09 µM (inactive),2.82 µM (inactive),19.9 µM (inactive),6.93 µM (inactive),26.2 µM (inactive),19 µM (inactive),17.4 µM (inactive),15.4 µM (inactive),38.2 µM (inactive),22.3 µM (inactive),17.2 µM (inactive),18 µM (inactive),4.21 µM (inactive),35.5 µM (inactive),33 µM (inactive),20.2 µM (inactive),38.5 µM (inactive)
